Experimental data taken from ChEMBL document CHEMBL1201862, “PubChem BioAssay data set” (2004).
Where “and” joins values, the source holds several entries; their conditions need not be identical. Equal entries are not always repeated.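 Cultured in 96-well plates, cells were exposed to test compound for 48 hours across five concentrations. At the GI50, growth is halved.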 Calls of active or inactive are those of the source. Cut-off read from the data, not from the text of the source: active = GI50 up to about 1.1 µM and inactive = higher. Where a SMILES comes first, the peptide text is derived from it. [ ]: non-standard residue; d: D form. The star is where a group is joined. ξ: configuration not given here. NMeF = CN[C@@H](Cc1ccccc1)C(=O)O; NMeV = CN[C@H](C(=O)O)C(C)C; ξNMeN = CNC(CC(N)=O)C(=O)O; NMeA = CN[C@@H](C)C(=O)O; ξNMeV = CNC(C(=O)O)C(C)C; Boc = CC(C)(C)OC(=O)*

What was measured:
Assay in all cases: NCI anticancer screen, dose series, 48 h
A498 = system: A498
UACC-257 = system: UACC-257
NCI-H23 = system: NCI-H23
K562 = system: K562
LOX IMVI = system: LOX IMVI
HCT-116 = system: HCT-116
OVCAR-4 = system: OVCAR-4
HCC 2998 = system: HCC 2998
SK-MEL-5 = system: SK-MEL-5
Malme-3M = system: Malme-3M
SK-MEL-2 = system: SK-MEL-2
SNB-19 = system: SNB-19
KM12 = system: KM12
M14 = system: M14
CAKI-1 = system: CAKI-1
U-251 = system: U-251
NCI/ADR-RES = system: NCI/ADR-RES
BT-549 = system: BT-549
DU-145 = system: DU-145
Hs-578T = system: Hs-578T

Structure (SMILES) | GI50 (A498) | GI50 (UACC-257) | GI50 (NCI-H23) | GI50 (K562) | GI50 (LOX IMVI) | GI50 (HCT-116) | GI50 (OVCAR-4) | GI50 (HCC 2998) | GI50 (SK-MEL-5) | GI50 (Malme-3M) | GI50 (SK-MEL-2) | GI50 (SNB-19) | GI50 (KM12) | GI50 (M14) | GI50 (CAKI-1) | GI50 (U-251) | GI50 (NCI/ADR-RES) | GI50 (BT-549) | GI50 (DU-145) | GI50 (Hs-578T)
CCCCCCCCCCCCC(CCCCCCCCCCCC)OP(=O)(O)O | 20.6 µM (inactive) | > 100 µM (inactive) | > 100 µM (inactive) | 62.2 µM (inactive) | > 100 µM (inactive) | 73.3 µM (inactive) | > 100 µM (inactive) | > 100 µM (inactive) | > 100 µM (inactive) | > 100 µM (inactive) | 65.2 µM (inactive) | 91.6 µM (inactive) | > 100 µM (inactive) | > 100 µM (inactive) | > 100 µM (inactive) | 34 µM (inactive) |  |  |  | 
CCOC(=O)[C@H](CCCNC(=O)OC(C)(C)C)NCc1ccc(OC)c(OC)c1 | > 100 µM (inactive) | > 100 µM (inactive) | > 100 µM (inactive) | > 100 µM (inactive) | > 100 µM (inactive) | > 100 µM (inactive) | > 100 µM (inactive) | > 100 µM (inactive) | > 100 µM (inactive) | > 100 µM (inactive) | > 100 µM (inactive) | > 100 µM (inactive) | > 100 µM (inactive) | > 100 µM (inactive) | > 100 µM (inactive) | > 100 µM (inactive) |  |  |  | 
CC(C)NC(C)Cc1ccccc1 (centres undefined) | > 100 µM (inactive) | > 100 µM (inactive) | > 100 µM (inactive) | > 100 µM (inactive) | > 100 µM (inactive) | > 100 µM (inactive) | > 100 µM (inactive) | > 100 µM (inactive) | > 100 µM (inactive) | > 100 µM (inactive) | > 100 µM (inactive) | > 100 µM (inactive) | > 100 µM (inactive) | > 100 µM (inactive) | > 100 µM (inactive) | > 100 µM (inactive) |  |  |  | 
CN(C(=O)c1ccc2c(c1)sc1c(=O)n(C)c3ccccc3c12)c1ccccc1 |  | > 100 µM (inactive) | > 100 µM (inactive) | > 100 µM (inactive) | > 100 µM (inactive) | > 100 µM (inactive) | > 100 µM (inactive) | > 100 µM (inactive) | > 100 µM (inactive) | > 100 µM (inactive) | > 100 µM (inactive) | > 100 µM (inactive) | > 100 µM (inactive) | > 100 µM (inactive) | > 100 µM (inactive) | 50 µM (inactive) | > 100 µM (inactive) | > 100 µM (inactive) | > 100 µM (inactive) | 
COc1ccc2cc(C(C)C(O)c3cc(F)c(F)c(F)c3F)ccc2c1 (centres undefined) | > 100 µM (inactive) | > 100 µM (inactive) | 49.8 µM (inactive) | 30.8 µM (inactive) | > 100 µM (inactive) | > 100 µM (inactive) | 70.5 µM (inactive) | > 100 µM (inactive) | > 100 µM (inactive) | > 100 µM (inactive) |  | > 100 µM (inactive) |  | > 100 µM (inactive) |  | > 100 µM (inactive) | 97.9 µM (inactive) | > 100 µM (inactive) | > 100 µM (inactive) | 
CCC(=O)N/N=C(\C=C\c1cccc(O)c1)c1sc(Nc2ccc(C)cc2[N+](=O)[O-])nc1C | > 100 µM (inactive) | > 100 µM (inactive) | 2.22 µM (inactive) | > 100 µM (inactive) | 58.6 µM (inactive) | > 100 µM (inactive) | 49 µM (inactive) | > 100 µM (inactive) | > 100 µM (inactive) | > 100 µM (inactive) | > 100 µM (inactive) | > 100 µM (inactive) | > 100 µM (inactive) | > 100 µM (inactive) | > 100 µM (inactive) | > 100 µM (inactive) |  |  |  | 
O=C(O)c1ccc(S(=O)(=O)c2ccccc2)c([N+](=O)[O-])c1 | > 100 µM (inactive) | > 100 µM (inactive) | > 100 µM (inactive) | > 100 µM (inactive) | > 100 µM (inactive) | > 100 µM (inactive) | > 100 µM (inactive) | > 100 µM (inactive) | > 100 µM (inactive) | > 100 µM (inactive) | > 100 µM (inactive) | > 100 µM (inactive) | > 100 µM (inactive) | > 100 µM (inactive) | > 100 µM (inactive) | > 100 µM (inactive) |  |  |  | 
COC(=O)C1CCc2c1c(=O)n1c([nH]c3ccccc31)c2C#N (centres undefined) | > 100 µM (inactive) | > 100 µM (inactive) | > 100 µM (inactive) | > 100 µM (inactive) | > 100 µM (inactive) | > 100 µM (inactive) | > 100 µM (inactive) | > 100 µM (inactive) | > 100 µM (inactive) | > 100 µM (inactive) | > 100 µM (inactive) | > 100 µM (inactive) | > 100 µM (inactive) | > 100 µM (inactive) | > 100 µM (inactive) | > 100 µM (inactive) |  |  |  | 
COCCN(CCOC)C(=O)COc1c2cc(C(C)(C)C)cc1Cc1cc(C(C)(C)C)cc(c1OCC(=O)N(CCOC)CCOC)Cc1cc(C(C)(C)C)cc(c1OCC(=O)N(CCOC)CCOC)Cc1cc(C(C)(C)C)cc(c1OCC(=O)N(CCOC)CCOC)Cc1cc(C(C)(C)C)cc(c1OCC(=O)N(CCOC)CCOC)C2 | 3.17 µM (inactive) | 1.01 µM (active) | 1.19 µM (inactive) | 0.491 µM (active) | 1.73 µM (inactive) | 0.618 µM (active) | 0.467 µM (active) | 2.25 µM (inactive) | 1.32 µM (inactive) | 1.85 µM (inactive) | 1.02 µM (active) | 1.34 µM (inactive) | 0.518 µM (active) | 1.89 µM (inactive) |  | 0.53 µM (active) | 10.7 µM (inactive) |  | 2.81 µM (inactive) | 
CC1OC(OC2C(OC(=O)[C@]34CCC(C)(C)C[C@H]3C3=CC[C@@H]5[C@@]6(C)CC[C@H](OC7OC(C(=O)O)C(O)C(O)C7O)C(C)(C)[C@@H]6CC[C@@]5(C)[C@]3(C)CC4)OCC(O)C2O)C(O)C(O)C1OC1OCC(O)C(O)C1O (some centres undefined) | 17.8 µM (inactive) and 18.6 µM (inactive) | 45 µM (inactive) and 29.8 µM (inactive) | 17.7 µM (inactive) and 19.6 µM (inactive) |  | 66.8 µM (inactive) | 39.9 µM (inactive) and 45.9 µM (inactive) | 54 µM (inactive) and 53.8 µM (inactive) | 18.7 µM (inactive) and 19.2 µM (inactive) |  | 34.7 µM (inactive) and 28.3 µM (inactive) | 19.4 µM (inactive) and 33.1 µM (inactive) |  |  | 17.5 µM (inactive) and 19.2 µM (inactive) | 30 µM (inactive) and 40.4 µM (inactive) | 39.3 µM (inactive) and 75.2 µM (inactive) | 93.5 µM (inactive) |  |  | 
C=C=C(C)C(=O)N(C(C)C)C(C)C | > 100 µM (inactive) | > 100 µM (inactive) | > 100 µM (inactive) | > 100 µM (inactive) | > 100 µM (inactive) | > 100 µM (inactive) | > 100 µM (inactive) | > 100 µM (inactive) | > 100 µM (inactive) | > 100 µM (inactive) |  | > 100 µM (inactive) |  | > 100 µM (inactive) |  | > 100 µM (inactive) | > 100 µM (inactive) | > 100 µM (inactive) | > 100 µM (inactive) | 
COC(=O)[C@H](C)N(C)C(=O)C(CC(N)=O)N(C)C(=O)[C@H](Cc1ccccc1)N(C)C(=O)[C@@H]1CCCN1C(=O)[C@H](C(C)C)N(C)C(=O)C(C(C)C)N(C)C(=O)[C@@H](NC(=O)OC(C)(C)C)C(C)C (some centres undefined) (Boc-V[ξNMeV][NMeV]P[NMeF][ξNMeN][NMeA]-OMe) | > 50 µM (inactive) | > 50 µM (inactive) | > 50 µM (inactive) | > 50 µM (inactive) | > 50 µM (inactive) | > 50 µM (inactive) | 38.5 µM (inactive) | > 50 µM (inactive) | > 50 µM (inactive) | > 75 µM (inactive) | > 50 µM (inactive) | > 50 µM (inactive) | 16.4 µM (inactive) | > 50 µM (inactive) | > 50 µM (inactive) | > 50 µM (inactive) | > 50 µM (inactive) | > 50 µM (inactive) | > 50 µM (inactive) | 
O=[N+]([O-])c1ccc(/C=N/C2CCCCC2)cc1 | > 100 µM (inactive) | > 100 µM (inactive) | > 100 µM (inactive) | > 100 µM (inactive) | > 100 µM (inactive) | > 100 µM (inactive) | > 100 µM (inactive) | > 100 µM (inactive) | > 100 µM (inactive) | > 100 µM (inactive) | > 100 µM (inactive) | > 100 µM (inactive) | > 100 µM (inactive) | > 100 µM (inactive) | > 100 µM (inactive) | > 100 µM (inactive) |  |  |  | 
CCCC(=O)NC(NC1CCCCC1)(C(=O)OCC)C(F)(F)F (centres undefined) |  | > 100 µM (inactive) | > 100 µM (inactive) | > 100 µM (inactive) | > 100 µM (inactive) | > 100 µM (inactive) | > 100 µM (inactive) | > 100 µM (inactive) | > 100 µM (inactive) | > 100 µM (inactive) | > 100 µM (inactive) | > 100 µM (inactive) | > 100 µM (inactive) | > 100 µM (inactive) |  | > 100 µM (inactive) | > 100 µM (inactive) |  | > 100 µM (inactive) | > 100 µM (inactive)
COc1ccc2c(c1)c1c3n2CCNN=C3CCC1 | > 100 µM (inactive) | > 53.8 µM (inactive) | > 62.8 µM (inactive) | > 81.1 µM (inactive) | > 64.6 µM (inactive) | 99.5 µM (inactive) | > 100 µM (inactive) | > 100 µM (inactive) | > 100 µM (inactive) | > 100 µM (inactive) | > 100 µM (inactive) | > 100 µM (inactive) | > 100 µM (inactive) | > 100 µM (inactive) | 24.8 µM (inactive) | > 48.5 µM (inactive) |  |  |  | 
